{"source": "paper PMC3280264", "about": "(PLoS ONE, 2012)", "key": {"[1]": {"target": "Human SGLT2 (Homo sapiens, UniProt P31639)", "sequence (P31639 whole entry)": "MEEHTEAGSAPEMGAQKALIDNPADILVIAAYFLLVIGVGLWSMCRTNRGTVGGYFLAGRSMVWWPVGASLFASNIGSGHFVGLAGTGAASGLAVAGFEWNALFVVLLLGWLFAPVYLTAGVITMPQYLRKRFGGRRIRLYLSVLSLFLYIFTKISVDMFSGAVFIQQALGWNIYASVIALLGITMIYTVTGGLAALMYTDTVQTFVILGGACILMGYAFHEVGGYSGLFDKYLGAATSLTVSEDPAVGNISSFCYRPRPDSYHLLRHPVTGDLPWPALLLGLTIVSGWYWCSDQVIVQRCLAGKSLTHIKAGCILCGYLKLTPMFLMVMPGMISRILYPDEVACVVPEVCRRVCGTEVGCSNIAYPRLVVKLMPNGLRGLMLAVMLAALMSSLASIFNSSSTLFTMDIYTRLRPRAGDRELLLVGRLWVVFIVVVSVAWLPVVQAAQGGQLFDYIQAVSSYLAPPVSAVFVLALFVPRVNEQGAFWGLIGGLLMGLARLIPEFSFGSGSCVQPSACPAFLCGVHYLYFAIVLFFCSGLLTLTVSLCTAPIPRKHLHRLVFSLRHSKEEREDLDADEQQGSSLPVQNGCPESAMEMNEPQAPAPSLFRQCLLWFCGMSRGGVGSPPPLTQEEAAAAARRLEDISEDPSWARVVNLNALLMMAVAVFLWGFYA", "experiment": "cell-based", "protocol": "(§1) Sodium-dependent Glucose Uptake in Chinese Hamster Ovary (CHO) Cells Expressing SGLT1 and SGLT2 Co-transporters Parental CHO-K (CHOK) cells (commonly used mammalian cells for gene overexpression studies) expressing human or mouse SGLT1 and SGLT2 were utilized in this study. Cells were seeded into 96-well plates. Cells were then washed one time with 0.15 ml assay buffer (137 mM NaCl, 5 mM KCl, 1 mM CaCl2, 1 mM MgCl2, 50 mM HEPES, pH 7.4) at 37°C. […] Then, 5 µl of 6 mM alpha-methyl-D-glucopyranoside (AMG, a selective SGLT1/2 substrate)/^14C-AMG (0.07 µCi) was added to the cells and incubated at 37°C for 2 hours. Next, the cells were washed 3 times with 0.15 ml ice-cold phosphate-buffered saline (PBS). After the final wash was aspirated, 50 µl of microscint 20 (Packard, Meriden, Connecticut, USA) was added. The plate was counted by TopCount (Packard, Meriden, Connecticut, USA).\n(§2) Statistical analysis was performed using the program Prism (Graphpad, Monrovia, California, USA). Differences between groups were evaluated using 1-way […] with Dunnett's multiple comparison test or student's t-test (unpaired), as appropriate. Probabilities less than 5% (P<0.05) were considered to be statistically significant. […] All data are presented as mean ± standard error."}, "[2]": {"target": "Mouse SGLT2 (Mus musculus, UniProt Q923I7)", "sequence (Q923I7 whole entry)": "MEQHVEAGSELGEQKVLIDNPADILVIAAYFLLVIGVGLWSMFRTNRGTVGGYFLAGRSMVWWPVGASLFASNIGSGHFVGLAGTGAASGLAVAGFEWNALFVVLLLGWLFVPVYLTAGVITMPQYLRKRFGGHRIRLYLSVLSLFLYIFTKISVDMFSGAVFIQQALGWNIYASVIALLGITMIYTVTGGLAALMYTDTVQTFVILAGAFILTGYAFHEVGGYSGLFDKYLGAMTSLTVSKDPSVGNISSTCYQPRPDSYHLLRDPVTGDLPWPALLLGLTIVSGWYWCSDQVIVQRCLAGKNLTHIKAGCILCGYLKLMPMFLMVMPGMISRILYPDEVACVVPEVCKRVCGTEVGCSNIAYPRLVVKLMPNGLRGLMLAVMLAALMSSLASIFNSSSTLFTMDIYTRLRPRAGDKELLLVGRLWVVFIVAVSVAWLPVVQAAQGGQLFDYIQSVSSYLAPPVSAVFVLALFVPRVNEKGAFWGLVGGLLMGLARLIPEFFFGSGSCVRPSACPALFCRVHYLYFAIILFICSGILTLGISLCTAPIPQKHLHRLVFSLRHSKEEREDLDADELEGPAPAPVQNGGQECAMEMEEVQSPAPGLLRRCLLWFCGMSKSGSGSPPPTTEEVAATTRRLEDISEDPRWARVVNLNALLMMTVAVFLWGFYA", "experiment": "cell-based", "protocol": "as §1, §2"}, "[3]": {"target": "T1, glucose transporter 1 (GLUT1) (Rattus norvegicus, UniProt P11167)", "T1 construct": "endogenous in cells; host or cells: L6 rat skeletal muscle myoblasts", "T1 sequence (P11167 1-492)": "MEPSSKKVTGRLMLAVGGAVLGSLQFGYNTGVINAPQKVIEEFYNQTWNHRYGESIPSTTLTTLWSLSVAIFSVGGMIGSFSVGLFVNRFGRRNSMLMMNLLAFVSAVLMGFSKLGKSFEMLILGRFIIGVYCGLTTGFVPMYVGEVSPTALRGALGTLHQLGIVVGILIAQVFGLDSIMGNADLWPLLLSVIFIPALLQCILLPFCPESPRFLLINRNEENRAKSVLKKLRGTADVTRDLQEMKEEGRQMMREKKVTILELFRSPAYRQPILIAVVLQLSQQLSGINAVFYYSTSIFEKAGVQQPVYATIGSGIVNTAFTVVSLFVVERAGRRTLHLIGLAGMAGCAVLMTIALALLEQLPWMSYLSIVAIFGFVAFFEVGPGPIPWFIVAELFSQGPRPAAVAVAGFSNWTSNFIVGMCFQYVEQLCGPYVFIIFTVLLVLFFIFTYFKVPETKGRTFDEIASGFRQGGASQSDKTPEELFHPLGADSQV", "experiment": "3H-2-deoxy-glucose uptake in L6 myoblast cells", "type": "cell-based", "protocol": "Cells were maintained in Dulbecco's modified Eagle's medium containing 5.6 mM glucose supplemented with 10% fetal bovine serum, were seeded in 24-well plates at a density of 3.0×10^5 cells/well and cultured for 24 hours in an atmosphere of 5% CO2 at 37°C. […] The transport reaction was initiated by adding 50 µl of 4.5 mM 2-DG (a substrate for GLUTs)/^3H-2-DG (0.625 µCi) followed by incubation for 15 minutes at room temperature. The 2-DG uptake was halted by aspiration of the incubation mixture. Cells were immediately washed 3 times with ice-cold PBS. Samples were extracted with 0.3 N NaOH, and radioactivity was determined by liquid scintillation (Packard, Boston, Massachusetts, USA)."}}}
{"smiles": "Cc1ccc([C@@H]2O[C@H](CO)[C@@H](O)[C@H](O)[C@H]2O)cc1Cc1ccc(-c2ccc(F)cc2)s1", "note": "[canagliflozin, Canagliflozin]", "values": [{"measurement": "IC50", "setting": "[1]", "result": "4.4 ± 1.2", "unit": "nM"}, {"measurement": "IC50", "setting": "[2]", "result": 2, "unit": "nM"}, {"measurement": "inhibition at 10 µM", "setting": "[3]; 10 µM, L6 myoblasts, read-out: inhibition of facilitative GLUT-mediated 3H-2-DG uptake", "result": "< 50", "unit": "%"}, {"measurement": "IC50", "setting": "[3]; 3H-2-DG uptake, rat L6 myoblast cells", "result": "> 10000", "unit": "nM"}]}
